Laboratory results: ChEMBL document CHEMBL6115057, “Discovery and Optimization of a Covalent AKR1C3 Inhibitor” (J Med Chem, 2025)
Where a chain is given by its changes, count along the chain named. Active and inactive are the calls of the source. The calls are words filed in the database; no cut-off is given here.

Columns and labels:
[1] = biological target: T1, Aldo-keto reductase family 1 member C3 (Homo sapiens, UniProt P42330); assay: Inhibition of AKR1C3 in human COLO 205 cells by Cell based AKR activity assay
T1 sequence (P42330 whole entry): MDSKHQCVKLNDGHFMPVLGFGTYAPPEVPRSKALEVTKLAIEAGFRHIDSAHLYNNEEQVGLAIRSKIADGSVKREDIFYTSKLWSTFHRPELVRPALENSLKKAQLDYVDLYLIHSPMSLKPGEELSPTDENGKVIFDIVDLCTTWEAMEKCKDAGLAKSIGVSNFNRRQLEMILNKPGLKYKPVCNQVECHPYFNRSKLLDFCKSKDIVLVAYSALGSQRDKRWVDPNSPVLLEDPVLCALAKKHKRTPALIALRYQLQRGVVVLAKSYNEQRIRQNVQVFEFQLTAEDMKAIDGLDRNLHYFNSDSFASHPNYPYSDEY

[2] = biological target: T2, Aldo-keto reductase family 1 member C3 (Homo sapiens) (UniProt P42330); assay: Binding affinity to AKR1C3 in human COLO 205 cells assessed as interaction at Y24/Y55 at 100 uM measured after 4 hrs; type: cell-based
T2 sequence (whole entry): T1 sequence (P42330 whole entry)

[3] = biological target: T2, Aldo-keto reductase family 1 member C3 (Homo sapiens); assay: Inhibition of TMT-SuTex labelling of AKR1C3 in human live COLO 205 cells assessed as blockade of probe labelling at 10 uM measured after 2 hrs relative to control; type: cell-based
Homo sapiens [4] = species on record: Homo sapiens; assay: Selectivity ratio, ratio of IC50 for AKR1C2 (unknown origin) to AKR1C3 (unknown origin)
Homo sapiens [5] = species on record: Homo sapiens; assay: Selectivity ratio, ratio of IC50 for AKR1C1 (unknown origin) to AKR1C3 (unknown origin)
[6] = biological target: T2, Aldo-keto reductase family 1 member C3 (Homo sapiens); assay: Binding affinity to AKR1C3 in human live COLO 205 cells assessed as interaction at Y272 by measuring competition ratio at 10 uM measured after 2 hrs relative to control; type: cell-based
[7] = biological target: T3, Aldo-keto reductase family 1 member C4 (Homo sapiens, UniProt P17516); assay: Inhibition of AKR1C4 (unknown origin) in human HEK293T cells assessed as turnover of coumberone to coumberol by live cell coumberone reduction assay; type: cell-based
T3 sequence (P17516 whole entry): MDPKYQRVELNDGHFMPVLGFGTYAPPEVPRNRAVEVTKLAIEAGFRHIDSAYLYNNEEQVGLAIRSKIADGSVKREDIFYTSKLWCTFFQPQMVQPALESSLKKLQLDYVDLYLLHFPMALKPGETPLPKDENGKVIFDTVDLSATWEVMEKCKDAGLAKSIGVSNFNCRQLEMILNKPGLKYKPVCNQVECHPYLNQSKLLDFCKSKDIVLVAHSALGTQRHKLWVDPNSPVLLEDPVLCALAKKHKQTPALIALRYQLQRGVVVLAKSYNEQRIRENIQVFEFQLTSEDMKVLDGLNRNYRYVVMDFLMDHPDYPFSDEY

[8] = biological target: T4, Aldo-keto reductase family 1 member C2 (Homo sapiens, UniProt P52895); assay: Inhibition of AKR1C2 (unknown origin) in human HEK293T cells assessed as turnover of coumberone to coumberol by live cell coumberone reduction assay; type: cell-based
T4 sequence (P52895 whole entry): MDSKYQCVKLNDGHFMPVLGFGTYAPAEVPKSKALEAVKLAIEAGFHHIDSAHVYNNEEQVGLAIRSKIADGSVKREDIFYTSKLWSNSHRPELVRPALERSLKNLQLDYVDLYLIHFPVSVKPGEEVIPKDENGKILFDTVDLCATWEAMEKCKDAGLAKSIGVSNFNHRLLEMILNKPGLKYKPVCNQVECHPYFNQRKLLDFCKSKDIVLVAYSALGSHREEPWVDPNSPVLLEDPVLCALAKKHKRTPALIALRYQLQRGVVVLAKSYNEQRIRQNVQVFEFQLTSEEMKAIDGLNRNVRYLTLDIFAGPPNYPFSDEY

[9] = biological target: T5, Aldo-keto reductase family 1 member C1 (Homo sapiens, UniProt Q04828); assay: Inhibition of AKR1C1 (unknown origin) in human HEK293T cells assessed as turnover of coumberone to coumberol by live cell coumberone reduction assay; type: cell-based
T5 sequence (Q04828 whole entry): T4 sequence (P52895 whole entry) with V38T, H47R, V54L, S87C, M151V, H170R, L172Q

[10] = biological target: T2, Aldo-keto reductase family 1 member C3 (Homo sapiens); assay: Binding affinity to AKR1C3 in human live COLO 205 cells assessed as interaction at Y24 at 10 uM measured after 2 hrs; type: cell-based
[11] = biological target: T6, Aldo-keto reductase family 1 member C1 (Homo sapiens) (UniProt Q04828); assay: Inhibition of RJG-2121 probe labelling of AKR1C1 (unknown origin) expressed in human HEK293T cells in presence of CuAAC measured by Gel-Based (competitive ABPP) Chemical Proteomics Assay; type: cell-based; conditions: time 5-120 min
T6 sequence (whole entry): T4 sequence (P52895 whole entry) with V38T, H47R, V54L, S87C, M151V, H170R, L172Q

Homo sapiens [12] = species on record: Homo sapiens; assay: Selectivity ratio, ratio of IC50 for AKR1C4 (unknown origin) to AKR1C3 (unknown origin)
[13] = biological target: T2, Aldo-keto reductase family 1 member C3 (Homo sapiens); assay: Inhibition of TMT-SuTex labelling of AKR1C3 in human live COLO 205 cells assessed as competition ratio at 10 uM measured after 2 hrs relative to control; type: cell-based
[14] = biological target: T2, Aldo-keto reductase family 1 member C3 (Homo sapiens); assay: Inhibition of RJG-2121 probe labelling of AKR1C3 in human COLO 205 cells in presence of CuAAC Gel-Based (competitive ABPP) Chemical Proteomics Assay; type: cell-based
[15] = biological target: T6, Aldo-keto reductase family 1 member C1 (Homo sapiens); assay: Binding affinity to AKR1C1 in human live COLO 205 cells assessed as interaction at Y24/T126 by measuring competition ratio at 10 uM measured after 2 hrs relative to control; type: cell-based
[16] = biological target: Aldo-keto reductase family 1 member B10 (Homo sapiens) (UniProt O60218); assay: Binding affinity to AKR1B10 in human live COLO 205 cells assessed as interaction at Y49 by measuring competition ratio at 10 uM measured after 2 hrs relative to control; type: cell-based
[17] = biological target: T2, Aldo-keto reductase family 1 member C3 (Homo sapiens); assay: Inhibition of RJG-2121 probe labelling of AKR1C3 (unknown origin) expressed in human HEK293T cells in presence of CuAAC measured after 5 to 120 mins by Gel-Based (competitive ABPP) Chemical Proteomics Assay; type: cell-based; conditions: time 5-120 min
HEK293T = assay: Inhibition of RJG-2121 probe labelling of AKR1C4 (unknown origin) expressed in human HEK293T cells in presence of CuAAC measured after 5 to 120 mins by Gel-Based (competitive ABPP) Chemical Proteomics Assay; type: cell-based; conditions: time 5-120 min
[18] = biological target: T7, Aldo-keto reductase family 1 member C2 (Homo sapiens) (UniProt P52895); assay: Inhibition of RJG-2121 probe labelling of AKR1C2 (unknown origin) expressed in human HEK293T cells in presence of CuAAC measured after 5 to 120 mins by Gel-Based (competitive ABPP) Chemical Proteomics Assay; type: cell-based; conditions: time 5-120 min
T7 sequence (whole entry): T4 sequence (P52895 whole entry)

[19] = biological target: T6, Aldo-keto reductase family 1 member C1 (Homo sapiens); assay: Inhibition of RJG-2121 probe labelling of AKR1C1 (unknown origin) expressed in human HEK293T cells in presence of CuAAC measured after 5 to 120 mins by Gel-Based (competitive ABPP) Chemical Proteomics Assay; type: cell-based; conditions: time 5-120 min
[20] = biological target: T7, Aldo-keto reductase family 1 member C2 (Homo sapiens); assay: Binding affinity to AKR1C2 in human COLO 205 cells assessed as interaction at Y55 at 100 uM measured after 4 hrs; type: cell-based
[21] = biological target: T6, Aldo-keto reductase family 1 member C1 (Homo sapiens); assay: Binding affinity to AKR1C1 in human COLO 205 cells assessed as interaction at Y55 at 100 uM measured after 4 hrs; type: cell-based

Sequence of Aldo-keto reductase family 1 member B10 (Homo sapiens) (O60218 whole entry, looked up): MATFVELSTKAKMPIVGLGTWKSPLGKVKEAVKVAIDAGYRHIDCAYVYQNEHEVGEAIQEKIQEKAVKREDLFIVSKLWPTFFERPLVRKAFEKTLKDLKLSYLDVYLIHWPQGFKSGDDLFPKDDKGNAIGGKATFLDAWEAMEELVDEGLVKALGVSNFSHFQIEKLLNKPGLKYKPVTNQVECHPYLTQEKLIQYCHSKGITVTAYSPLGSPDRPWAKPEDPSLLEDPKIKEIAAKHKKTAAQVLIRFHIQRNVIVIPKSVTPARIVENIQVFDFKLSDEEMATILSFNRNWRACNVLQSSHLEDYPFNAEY

Compound	IC50 [1]	other results
COc1ccc(-c2ncn(S(=O)(=O)c3ccc(C(=O)N4CCN(c5ccccc5OC)CC4)cc3)n2)cc1	0.5 µM	
C#CCNC(=O)c1ccc(S(=O)(=O)n2cnc(C3CCCCC3)n2)cc1		Activity [2]: Active
COc1ccccc1N1CCN(C(=O)c2ccc(S(=O)(=O)n3cnc(C4CCCCC4)n3)cc2)CC1	0.027 µM	inhibition [3]: > 75%; Ratio IC50 (Homo sapiens [4]): 1770; Ratio IC50 (Homo sapiens [5]): 2380; Ratio [6]: 1; IC50 [7]: 6 µM; IC50 [8]: 23 µM; IC50 [9]: 31 µM; Activity [10]: Active; inhibition [11]: Time-dependent-effect; Ratio IC50 (Homo sapiens [12]): 461; Ratio [13]: 0.25; inhibition [14]: Dose-dependent-effect; Ratio [15]: 1; Ratio [16]: 1
NS(=O)(=O)c1ccc(-n2nc(CCCNC(=O)Nc3ccc(C(F)(F)F)cc3)cc2-c2ccccc2)cc1	> 10 µM	
COc1ccccc1N1CCN(C(=O)c2ccc(S(=O)(=O)n3cnc(-c4ccccc4)n3)cc2)CC1	2.7 µM	
C#CCNC(=O)c1cccc(S(=O)(=O)n2cncn2)c1		Activity [2]: Active
COc1ccccc1N1CCN(C(=O)c2ccc(S(=O)(=O)n3cnc(-c4ccco4)n3)cc2)CC1	5 µM	
COc1ccccc1N1CCN(C(=O)c2cccc(S(=O)(=O)n3cnc(C4CCCCC4)n3)c2)CC1	> 10 µM	
COc1ccccc1N1CCN(C(=O)c2cccc(S(=O)(=O)n3cncn3)c2)CC1	> 10 µM	inhibition [17]: inactive; inhibition (HEK293T): inactive; inhibition [18]: inactive; inhibition [19]: inactive; Activity [14]: inactive
COc1ccc(N2CCN(C(=O)c3ccc(S(=O)(=O)n4cncn4)cc3)CC2)cc1	0.95 µM	
COc1ccccc1N1CCN(C(=O)c2ccc(S(=O)(=O)n3cnc(-c4ccccc4F)n3)cc2)CC1	4.7 µM	
O=C(c1ccc(S(=O)(=O)n2cncn2)cc1)N1CCN(c2ccc(I)cc2)CC1	0.33 µM	
COc1ccccc1NC1CCN(C(=O)c2ccc(S(=O)(=O)n3cncn3)cc2)CC1	4.7 µM	
COc1ccccc1N1CCN(C(=O)c2ccc(S(=O)(=O)n3cnc(-c4ccc(Br)cc4)n3)cc2)CC1	0.98 µM	
COc1cccc(N2CCN(C(=O)c3ccc(S(=O)(=O)n4cncn4)cc3)CC2)c1	0.54 µM	
O=C(c1ccc(S(=O)(=O)n2cncn2)cc1)N1CCN(c2ccccn2)CC1	2.6 µM	
COc1ccccc1-c1ccc(NC(=O)c2ccc(S(=O)(=O)n3cncn3)cc2)cc1	8.7 µM	
COc1ccccc1N1CCN(C(=O)c2ccc(S(=O)(=O)n3cnc(-c4ccncc4)n3)cc2)CC1	4.2 µM	

Compound	IC50 [1]	other results
COc1ccccc1N1CCN(C(=O)c2ccc(S(=O)(=O)n3cnc(-c4cccnc4)n3)cc2)CC1	7.1 µM	
COc1ccccc1N1CCN(C(=O)c2ccc(S(=O)(=O)n3cnc(-c4ccc(OC(F)(F)F)cc4)n3)cc2)CC1	1.1 µM	
C#CCN(C)C(=O)c1ccc(S(=O)(=O)n2cnc(C3CC3)n2)cc1		Activity [2]: Active
COc1ccccc1N1CCN(C(=O)c2cccc(S(=O)(=O)n3cnc(C4CC4)n3)c2)CC1	9.2 µM	
O=C(Nc1ccc(-c2ccccc2OC(F)(F)F)cc1)c1ccc(S(=O)(=O)n2cncn2)cc1	> 10 µM	
COc1ccccc1N1CCN(C(=O)c2ccc(S(=O)(=O)n3cnc(-c4cccc(F)c4)n3)cc2)CC1	0.62 µM	
C#CCNC(=O)c1ccc(S(=O)(=O)n2cnc(C3CC3)n2)cc1		Activity [2]: Active
COc1ccccc1N1CCN(C(=O)c2ccc(S(=O)(=O)n3cnc(C4CC4)n3)cc2)CC1	0.087 µM	
COc1ccccc1N1CCN(C(=O)c2ccc(S(=O)(=O)n3cnc(-c4ccc(-c5ccccc5)cc4)n3)cc2)CC1	> 10 µM	
C#CCN(C)C(=O)c1cccc(S(=O)(=O)n2cnc(C3CC3)n2)c1		Activity [20]: Active; Activity [21]: Active
C#CCN(C)C(=O)c1ccc(S(=O)(=O)n2cncn2)cc1		Activity [20]: Active; Activity [21]: Active
COc1ccccc1N1CCN(C(=O)c2ccc(S(=O)(=O)n3cnc(-c4ccc(F)cc4)n3)cc2)CC1	0.51 µM	
COc1ccccc1N1CCN(C(=O)c2ccc(S(=O)(=O)n3cnc(C4CCC4)n3)cc2)CC1	0.062 µM	
COc1ccccc1N1CCN(C(=O)c2ccc(S(=O)(=O)n3cnc(-c4ccc(C(F)(F)F)cc4)n3)cc2)CC1	0.93 µM	
COc1ccccc1N1CCN(C(=O)c2ccc(S(=O)(=O)n3cncn3)cc2)CC1	2.4 µM	
COc1ccccc1N1CCN(C(=O)c2ccc(S(=O)(=O)n3cnc(C4CCCC4)n3)cc2)CC1	0.041 µM	
COc1ccccc1N1CCN(C(=O)c2cccc(S(=O)(=O)n3cnc(-c4cccnc4)n3)c2)CC1	> 10 µM	
O=C(Nc1ccc(-c2ccccn2)cc1)c1ccc(S(=O)(=O)n2cncn2)cc1	> 10 µM	
